Data: ChEMBL document CHEMBL5705903, “A DNA Hypomethylation Signature Predicts Antitumor Activity of LSD1 Inhibitors in SCLC” (Cancer Cell, 2015)
Active and inactive are the calls of the source. The rule behind the calls is not given here.

Key:
[1] = target: Lysine-specific histone demethylase 1A (Homo sapiens, UniProt O60341); assay: Binding affinity to LSD1 (unknown origin) using H3K4me2 as substrate assessed as apparent inhibition constant by HRP-coupled amplex red assay; conditions: read-out: Ki(app)
[2] = Half life in mouse blood at 5 mg/kg, po by HPLC/MS/MS analysis; type: ADME, organism-based
[3] = Cmax in mouse tumor at 5 mg/kg, po by HPLC/MS/MS analysis; type: ADME, organism-based, Neoplasm
[4] = Effect on cleaved PARP level in human NCI-H1417 cells assessed as relative expression at 1000 nM measured after 7 days by Western blot analysis (reference value: 0.10); type: functional; conditions: time 7 day
[5] = Effect on cleaved PARP level in human NCI-H1417 cells assessed as relative expression at 10 nM measured after 14 days by Western blot analysis (reference value: 0.38); type: functional; conditions: time 14 day
[6] = Effect on cleaved PARP level in human NCI-H1417 cells assessed as fold change at 1000 nM measured after 10 days by Western blot analysis (reference value: 1.00); type: functional; conditions: time 10 day
[7] = Effect on cleaved PARP level in human NCI-H526 cells assessed as relative expression at 100 nM measured after 7 days by Western blot analysis (reference value: 0.57); type: functional; conditions: time 7 day
[8] = Effect on cleaved PARP level in human NCI-H526 cells assessed as relative expression at 1000 nM measured after 7 days by Western blot analysis (reference value: 0.57); type: functional; conditions: time 7 day
[9] = Effect on cleaved PARP level in human NCI-H526 cells assessed as relative expression at 10 nM measured after 10 days by Western blot analysis (reference value: 0.81); type: functional; conditions: time 10 day
[10] = Effect on cleaved PARP level in human NCI-H524 cells assessed as relative expression at 1000 nM measured after 14 days by Western blot analysis (reference value: […]); type: functional; conditions: time 14 day
[11] = Effect on cleaved PARP level in human NCI-H524 cells assessed as fold change at 1000 nM measured after 14 days by Western blot analysis (reference value: 1.00); type: functional; conditions: time 14 day
[12] = Effect on cleaved PARP level in human NCI-H1694 cells assessed as relative expression at 10 nM measured after 10 days by Western blot analysis (reference value: 0.31); type: functional; conditions: time 10 day
[13] = Effect on cleaved PARP level in human NCI-H1694 cells assessed as relative expression at 100 nM measured after 14 days by Western blot analysis (reference value: 0.25); type: functional; conditions: time 14 day
[14] = Effect on cleaved PARP level in human NCI-H69 cells assessed as relative expression at 10 nM measured after 10 days by Western blot analysis (reference value: 0.03); type: functional; conditions: time 10 day
[15] = Effect on cleaved PARP level in human NCI-H69 cells assessed as fold change at 10 nM measured after 14 days by Western blot analysis (reference value: 1.00); type: functional; conditions: time 14 day
[16] = Effect on cleaved PARP level in human NCI-H69 cells assessed as fold change at 100 nM measured after 14 days by Western blot analysis (reference value: 1.00); type: functional; conditions: time 14 day
[17] = Effect on cleaved PARP level in human NCI-H510 cells assessed as relative expression at 10 nM measured after 10 days by Western blot analysis (reference value: 0.02); type: functional, NCI-H510A; conditions: time 10 day
[18] = Effect on cleaved PARP level in human NCI-H510 cells assessed as fold change at 1000 nM measured after 7 days by Western blot analysis (reference value: 1.00); type: functional, NCI-H510A; conditions: time 7 day
[19] = Effect on cleaved PARP level in human NCI-H510 cells assessed as fold change at 10 nM measured after 14 days by Western blot analysis (reference value: 1.00); type: functional, NCI-H510A; conditions: time 14 day
[20] = Effect on cleaved PARP level in human NCI-H510 cells assessed as fold change at 100 nM measured after 14 days by Western blot analysis (reference value: 1.00); type: functional, NCI-H510A; conditions: time 14 day
[21] = Effect on cleaved PARP level in human NCI-H889 cells assessed as fold change at 10 nM measured after 7 days by Western blot analysis (reference value: 1.00); type: functional; conditions: time 7 day
[22] = Effect on cleaved PARP level in human NCI-H889 cells assessed as fold change at 10 nM measured after 14 days by Western blot analysis (reference value: 1.00); type: functional; conditions: time 14 day
[23] = Effect on cleaved PARP level in human NCI-H889 cells assessed as fold change at 100 nM measured after 14 days by Western blot analysis (reference value: 1.00); type: functional; conditions: time 14 day
[24] = Effect on cleaved PARP level in human NCI-H2171 cells assessed as fold change at 10 nM measured after 14 days by Western blot analysis (reference value: 1.00); type: functional; conditions: time 14 day
[25] = Effect on cleaved PARP level in human NCI-H146 cells assessed as relative expression at 100 nM measured after 14 days by Western blot analysis (reference value: 2.42); type: functional; conditions: time 14 day
[26] = Effect on cleaved PARP level in human NCI-H146 cells assessed as relative expression at 1000 nM measured after 14 days by Western blot analysis (reference value: 2.42); type: functional; conditions: time 14 day
[27] = Effect on cleaved PARP level in human NCI-H146 cells assessed as fold change at 100 nM measured after 7 days by Western blot analysis (reference value: 1.00); type: functional; conditions: time 7 day
[28] = Toxicity in rat assessed as morbidity measured for 28 days; conditions: in vivo, 672 h, time 28 day
[29] = Toxicity in dog assessed as suppression of neutrophil in bone marrow measured for 28 days; type: cell-based, Canis lupus familiaris; conditions: 672 h, time 28 day
NCI-H526 [30] = assay: Antitumor activity against human NCI-H526 cells xenografted in nude mouse assessed as mean tumor volume at 0.5 mg/kg, po administered daily measured twice weekly (reference value: 2359 +/- 247 mm3); type: functional
NCI-H526 [31] = assay: Antitumor activity against human NCI-H526 cells xenografted in nude mouse assessed as tumor growth inhibition at 0.5 mg/kg, po administered daily measured twice weekly relative to control; type: functional; conditions: read-out: TGI
SHP77 = assay: Effect on NCAM gene expression in human SHP77 cells at 1 uM measured after 4 days by qRT-PCR analysis; type: functional, cell-based; conditions: time 4.0 day
NCI-H146 = assay: Effect on SYP gene expression in human NCI-H146 cells at 1 uM measured after 4 days by qRT-PCR analysis; type: functional, cell-based; conditions: time 4.0 day
NCI-H526 [32] = assay: Upregulation of LSD1 signal enrichment at super enhancers in human NCI-H526 cells at 1 uM; type: functional, cell-based
NCI-H526 [33] = assay: In vivo inhibition of LSD1 in human NCI-H526 cells xenografted in nude mouse assessed as change in TSPAN8 gene expression measured after 24 hrs post single administration by qRT-PCR analysis; type: functional, organism-based; conditions: dose 0.06-135 mg/kg
NCI-H526 [34] = assay: In vivo inhibition of LSD1 in human NCI-H526 cells xenografted in nude mouse assessed as change in LIX1L gene expression measured after 24 hrs post single administration by qRT-PCR analysis; type: functional, organism-based; conditions: dose 0.06-135 mg/kg
NCI-H526 [35] = assay: In vivo inhibition of LSD1 in human NCI-H526 cells xenografted in nude mouse assessed as change in ZEB1 gene expression administrated daily for 5 days by qRT-PCR analysis; type: functional, organism-based; conditions: dose 0.02-135 mg/kg, time 5.0 day

O=C(O)c1ccc(CN2CCC(CN[C@@H]3C[C@H]3c3ccccc3)CC2)cc1 [GSK2879552]
Ki [1]: 1700 nM | half-life [2]: 1.9 h | Cmax [3]: 355 ng/mL | Activity [4]: 0.36 | Activity [5]: 0.31 | fold change (FC) [6]: 2.12 | Activity [7]: 0.68 | Activity [8]: 0.74 | Activity [9]: 0.46 | Activity [10]: 1.17 | fold change (FC) [11]: 0.77 | Activity [12]: 0.27 | Activity [13]: 0.23 | Activity [14]: 0.06 | fold change (FC) [15]: 1.66 | fold change (FC) [16]: 5.03 | Activity [17]: 0.08 | fold change (FC) [18]: 2.06 | fold change (FC) [19]: 1.79 | fold change (FC) [20]: 2.92 | fold change (FC) [21]: 0.09 | fold change (FC) [22]: 1.84 | fold change (FC) [23]: 2.51 | fold change (FC) [24]: 0.9 | Activity [25]: 1.09 | Activity [26]: 1.45 | fold change (FC) [27]: 1.02 | Activity [28]: Toxic | Activity [29]: Toxic | Activity (NCI-H526 [30]): 1319 mm3 | inhibition in vivo at 0.5 mg/kg (NCI-H526 [31]): 48% | Activity (SHP77): inactive | Activity (NCI-H146): inactive | Activity (NCI-H526 [32]): Active | inhibition (NCI-H526 [33]): Dose-Dependent Effect | inhibition (NCI-H526 [34]): Dose-Dependent Effect | inhibition (NCI-H526 [35]): Dose-Dependent Effect
